Measured values as given in US20240109972A1, “ANTIBODY AND TAXANE COMBINATION THERAPY” (Genmab A/S, priority 2020, published 2024).

Tested on: solid malignant tumors
Assay: GEN1046 Phase I dose escalation (NCT03917381), response by RECIST v1.1
Assay type: in vivo, human
Conditions: for BOR Complete Response, (percent) / BOR Complete Response, patients / BOR Partial Response, (percent) / BOR Partial Response, patients / BOR Progressive Disease, (percent) / BOR Progressive Disease, patients / BOR Stable Disease, (percent) / BOR Stable Disease, patients: 3 Feb. 2020
Source text: The resistance to, failure to respond to and/or relapse from treatment with a binding agent of the invention and/or other therapeutic agent(s) may be determined according to the Response Evaluation Criteria In Solid Tumors; version 1.1 (RECIST Criteria v1.1).
The “best overall response” is the best response recorded from the start of the treatment until disease progression/recurrence (the smallest measurements recorded since the treatment started will be used as the reference for PD). Subjects with CR or PR are considered to be objective response. Subjects with CR, PR or SD are considered to be in disease control. Subjects with NE are counted as non-responders. […]
Clinical trial on GCT1046-01 (ClinicalTrials.gov Identifier: NCT03917381) was designed as a two-part trial, including an ongoing dose escalation part and a planned expansion part.
The trial consists of 2 parts; a First-in-Human (FIH) dose escalation (Phase I) and an expansion (Phase 11a).
For dose escalation, subject was required to be a man or […] and was required to have measurable disease according to RECIST 1.1.

GEN1046: PD-L1×4-1BB bispecific antibody: PD-L1-547-FEAL combined with CD137-009-HC7LC2-FEAR (SEQ ID NOs: 1, 5, 21, 19; 8, 12, 22, 20)
50.0%: Confirmed PD (Progressive Disease), % of patients (25 mg (N 4), Oct. 12, 2020) | PD (Progressive Disease), % of patients (25 mg (N 4), Oct. 12, 2020)
25.0%: Confirmed Disease Control (PR + PR + SD) Rate, % (25 mg (N 4), Oct. 12, 2020) | Confirmed NE (Not Evaluable), % of patients (25 mg (N 4), Oct. 12, 2020) | Confirmed SD (Stable Disease), % of patients (25 mg (N 4), Oct. 12, 2020) | Disease Control (PR + PR + SD) Rate, % (25 mg (N 4), Oct. 12, 2020) | NE (Not Evaluable), % of patients (25 mg (N 4), Oct. 12, 2020)
2: Confirmed PD (Progressive Disease), patients (25 mg (N 4), Oct. 12, 2020) | PD (Progressive Disease), patients (25 mg (N 4), Oct. 12, 2020) | BOR Progressive Disease, patients (25 mg (n = 2)) | Confirmed PD (Progressive Disease), patients (50 mg (N 5), Oct. 12, 2020) | PD (Progressive Disease), patients (50 mg (N 5), Oct. 12, 2020) | BOR Progressive Disease, patients (50 mg (n = 5))
(60): BOR Stable Disease, (percent) (50 mg (n = 5))
(100): BOR Progressive Disease, (percent) (25 mg (n = 2))
40.0%: Confirmed PD (Progressive Disease), % of patients (50 mg (N 5), Oct. 12, 2020) | PD (Progressive Disease), % of patients (50 mg (N 5), Oct. 12, 2020)
0: CR (Complete Response), patients (25 mg (N 4), Oct. 12, 2020) | Confirmed CR (Complete Response), patients (25 mg (N 4), Oct. 12, 2020) | Confirmed Objective Response (CR + PR) Rate, patients (25 mg (N 4), Oct. 12, 2020) | Confirmed PR (Partial Response), patients (25 mg (N 4), Oct. 12, 2020) | Objective Response (CR + PR) Rate, patients (25 mg (N 4), Oct. 12, 2020) | PR (Partial Response), patients (25 mg (N 4), Oct. 12, 2020) | BOR Complete Response, patients (25 mg (n = 2)) | BOR Partial Response, patients (25 mg (n = 2)) | BOR Stable Disease, patients (25 mg (n = 2)) | CR (Complete Response), patients (50 mg (N 5), Oct. 12, 2020) | Confirmed CR (Complete Response), patients (50 mg (N 5), Oct. 12, 2020) | Confirmed NE (Not Evaluable), patients (50 mg (N 5), Oct. 12, 2020) | Confirmed Objective Response (CR + PR) Rate, patients (50 mg (N 5), Oct. 12, 2020) | Confirmed PR (Partial Response), patients (50 mg (N 5), Oct. 12, 2020) | NE (Not Evaluable), patients (50 mg (N 5), Oct. 12, 2020) | Objective Response (CR + PR) Rate, patients (50 mg (N 5), Oct. 12, 2020) | PR (Partial Response), patients (50 mg (N 5), Oct. 12, 2020) | BOR Complete Response, patients (50 mg (n = 5)) | BOR Partial Response, patients (50 mg (n = 5)) | CR (Complete Response), patients (80 mg (N 9), Oct. 12, 2020) | Confirmed CR (Complete Response), patients (80 mg (N 9), Oct. 12, 2020) | Confirmed NE (Not Evaluable), patients (80 mg (N 9), Oct. 12, 2020)
77.8%: Confirmed SD (Stable Disease), % of patients (80 mg (N 9), Oct. 12, 2020)
(40): BOR Progressive Disease, (percent) (50 mg (n = 5))
60.0%: Confirmed Disease Control (PR + PR + SD) Rate, % (50 mg (N 5), Oct. 12, 2020) | Confirmed SD (Stable Disease), % of patients (50 mg (N 5), Oct. 12, 2020) | Disease Control (PR + PR + SD) Rate, % (50 mg (N 5), Oct. 12, 2020)
3: Confirmed Disease Control (PR + PR + SD) Rate, patients (50 mg (N 5), Oct. 12, 2020) | Confirmed SD (Stable Disease), patients (50 mg (N 5), Oct. 12, 2020) | Disease Control (PR + PR + SD) Rate, patients (50 mg (N 5), Oct. 12, 2020) | BOR Stable Disease, patients (50 mg (n = 5))
88.9%: Confirmed Disease Control (PR + PR + SD) Rate, % (80 mg (N 9), Oct. 12, 2020)
8: Confirmed Disease Control (PR + PR + SD) Rate, patients (80 mg (N 9), Oct. 12, 2020)
(0): BOR Complete Response, (percent) (25 mg (n = 2)) | BOR Partial Response, (percent) (25 mg (n = 2)) | BOR Stable Disease, (percent) (25 mg (n = 2)) | BOR Complete Response, (percent) (50 mg (n = 5)) | BOR Partial Response, (percent) (50 mg (n = 5))
1: Confirmed Disease Control (PR + PR + SD) Rate, patients (25 mg (N 4), Oct. 12, 2020) | Confirmed NE (Not Evaluable), patients (25 mg (N 4), Oct. 12, 2020) | Confirmed SD (Stable Disease), patients (25 mg (N 4), Oct. 12, 2020) | Disease Control (PR + PR + SD) Rate, patients (25 mg (N 4), Oct. 12, 2020) | NE (Not Evaluable), patients (25 mg (N 4), Oct. 12, 2020) | Confirmed Objective Response (CR + PR) Rate, patients (80 mg (N 9), Oct. 12, 2020) | Confirmed PD (Progressive Disease), patients (80 mg (N 9), Oct. 12, 2020) | Confirmed PR (Partial Response), patients (80 mg (N 9), Oct. 12, 2020)
11.1%: Confirmed Objective Response (CR + PR) Rate, % (80 mg (N 9), Oct. 12, 2020) | Confirmed PD (Progressive Disease), % of patients (80 mg (N 9), Oct. 12, 2020) | Confirmed PR (Partial Response), % of patients (80 mg (N 9), Oct. 12, 2020)
